Experimental data as given in ChEMBL document CHEMBL1134896, “Antileishmanial dinitroaniline sulfonamides with activity against parasite tubulin” (Bioorg Med Chem Lett, 2002).

Experiments:
Leishmania donovani [1] = test: Inhibitory activity against Leishmania donovani promastigotes; type: functional, organism-based
Leishmania sp. = test: Percentage inhibition against Leishmania tubulin in vitro was determined at 20 uM; type: functional
Leishmania donovani [2] = test: Inhibitory activity against Leishmania donovani amastigotes; type: functional, organism-based

For `CCCNS(=O)(=O)c1cc([N+](=O)[O-])c(N(CCC)CCC)c([N+](=O)[O-])c1`, the IC50 (Leishmania donovani [1]) was 56 µM, the inhibition at 20 µM (Leishmania sp.) was 97% and the IC50 (Leishmania donovani [2]) was 56.9 µM.

For `CCCNc1c([N+](=O)[O-])cc(S(N)(=O)=O)cc1[N+](=O)[O-]`, the IC50 (Leishmania donovani [1]) was 67 µM and the inhibition at 20 µM (Leishmania sp.) was 43%.

`CCCN(CCC)c1c([N+](=O)[O-])cc(C(N)=O)cc1[N+](=O)[O-]` gave an IC50 (Leishmania donovani [1]) of 76.4 µM and an inhibition at 20 µM (Leishmania sp.) of 34%.

Work on `CCCN(CCC)c1c([N+](=O)[O-])cc(S(=O)(=O)Nc2ccccc2)cc1[N+](=O)[O-]` yielded an IC50 (Leishmania donovani [1]) of 14.7 µM, an inhibition at 20 µM (Leishmania sp.) of 108% and an IC50 (Leishmania donovani [2]) of 5.41 µM.

For `NS(=O)(=O)c1cc([N+](=O)[O-])c(N2CCOCC2)c([N+](=O)[O-])c1`, the IC50 (Leishmania donovani [1]) was > 100 µM and the inhibition at 20 µM (Leishmania sp.) was 21%.

With `CCCCN(CCCC)c1c([N+](=O)[O-])cc(S(N)(=O)=O)cc1[N+](=O)[O-]` the IC50 (Leishmania donovani [1]) was 17.8 µM, the inhibition at 20 µM (Leishmania sp.) was 89% and the IC50 (Leishmania donovani [2]) was 20.1 µM.

`CCCCCCN(CCCCCC)c1c([N+](=O)[O-])cc(S(N)(=O)=O)cc1[N+](=O)[O-]` gave an IC50 (Leishmania donovani [1]) of 12.2 µM, an inhibition at 20 µM (Leishmania sp.) of 48% and an IC50 (Leishmania donovani [2]) of 11.7 µM.

With `CCCN(CCC)c1c([N+](=O)[O-])cc(C#N)cc1[N+](=O)[O-]` the IC50 (Leishmania donovani [1]) was > 100 µM and the inhibition at 20 µM (Leishmania sp.) was 25%.

With `CCCN(CCC)c1ccc(S(N)(=O)=O)cc1[N+](=O)[O-]` the IC50 (Leishmania donovani [1]) was 89.8 µM and the inhibition at 20 µM (Leishmania sp.) was 19%.

With `CCN(CC)c1c([N+](=O)[O-])cc(S(N)(=O)=O)cc1[N+](=O)[O-]` the IC50 (Leishmania donovani [1]) was 69.3 µM and the inhibition at 20 µM (Leishmania sp.) was 58%.

With `CCCN(CCC)c1c([N+](=O)[O-])cc(C(=N)NO)cc1[N+](=O)[O-]` the IC50 (Leishmania donovani [1]) was > 100 µM and the inhibition at 20 µM (Leishmania sp.) was 35%.

`CCCCCN(CCCCC)c1c([N+](=O)[O-])cc(S(N)(=O)=O)cc1[N+](=O)[O-]` was tested, and the IC50 (Leishmania donovani [1]) was 8.02 µM, the inhibition at 20 µM (Leishmania sp.) was 95% and the IC50 (Leishmania donovani [2]) was 9 µM.

`NS(=O)(=O)c1cc([N+](=O)[O-])c(N2CCCC2)c([N+](=O)[O-])c1` was tested, and the IC50 (Leishmania donovani [1]) was 97.1 µM and the inhibition at 20 µM (Leishmania sp.) was 57%.

`CCCN(CCC)c1c([N+](=O)[O-])cc(S(N)(=O)=O)cc1[N+](=O)[O-]` [ORYZALIN] was tested, and the IC50 (Leishmania donovani [1]) was 44.1 µM, the inhibition at 20 µM (Leishmania sp.) was 54% and the IC50 (Leishmania donovani [2]) was 72.5 µM.

`N=C(N)c1ccc(OCCCCCOc2ccc(C(=N)N)cc2)cc1` [PENTAMIDINE] gave an IC50 (Leishmania donovani [1]) of 1.61 µM and an IC50 (Leishmania donovani [2]) of 2 µM.
